In patent US7863428B2, “Fluorogenic enzyme substrates and methods of preparation” (Tibotec BVBA, priority 2002, dated 2011):

Columns and labels:
[1] = tested on: β-D-glucuronidase from Helix Pommatia type HP-2; experiment: Quick test for enzyme recognition of GUS substrates; type: biochemical
Method: Dibutyl GUS substrate (compound 27) was tested. First a solution of 2 mg of product (compound 27) in 2 ml pH 8 buffer solution (Merck Titrisol 9888) was made. 1 ml of this solution was kept aside, to the other 1 ml solution 5 μl (500 UNITS) β-D-glucuronidase from Helix Pommatia type HP-2 (Sigma G7017) was added. […] The plate was developed using isooctane/acetone 60:40.

[2] = tested on: GUS reporter enzyme in hair-root cells of a transgenic tobacco plant; experiment: Testing substrate in vivo, confocal microscopy of hair-root cells; type: cell-based; conditions: cells not permeabilized
Excerpt: FIG. 1. Testing substrate (compound 27) in vivo.

[3] = tested on: GUS transfected 293T cells; experiment: Enzymatic test in mammalian cells electroporated with pLNCGUS; type: cell-based; conditions: 10 μg/ml
Method: FIG. 3. Fluorescent (=GUS transfected) and non-fluorescent 293T cells with the presence of compound 27.
Cells were electroporated in the presence of 10 μg pLNCGUS and after 24 hours, compound 27 (10 mM stock in DMSO) was added to a final concentration of 10 μg/ml. Less than 5% of the cells had taken up the pLNCGUS plasmid.

| Compound | reaction in GUS substrate test ([1]; after 30 minutes) | detection of GUS reporter enzyme in the cell nucleus [2] | fluorescent spot on TLC plate after incubation with GUS enzyme (conversion of non-fluorescent substrate into fluorescent product) ([1]; 2 mg in 2 ml pH 8 buffer, 500 UNITS enzyme per 1 ml, 15 minutes shaking at room temperature) | fluorescence of cells in the presence of substrate ([3]; 293T cells electroporated with 10 μg pLNCGUS, substrate added after 24 hours) | fluorescence of cells in the presence of substrate ([3]; cells electroporated in the absence of pLNCGUS) |
| --- | --- | --- | --- | --- | --- |
| CCCCCc1ccc(O[C@@H]2O[C@H](C(=O)O)[C@@H](O)[C@H](O)[C@H]2O)c(-c2nc3ccc(CCCCC)cc3c(=O)[nH]2)c1 [compound 24, 1-O-(2-(4-oxo-6-n-pentyl-3H-quinazolinyl)-4-n-pentylphenyl)-β-D-glucuronic acid] | clear positive reaction | – | – | – | – |
| CCCCc1ccc(O[C@@H]2OC(C(=O)O)[C@@H](O)[C@@H](O)C2O)c(-c2nc3ccc(CCCC)cc3c(=O)[nH]2)c1 (some centres unmarked) [compound 27] | – | can be shown with lipophilic GUS substrate (compound 27) without permeabilizing cells | clear fluorescent spot | Fluorescent | weak background fluorescence |
